Assay results as given in PubChem BioAssay AID328 (DTP/NCI, 2004).
Toxic doses and inconclusive results are not listed.

System: BDF1 mice, P388 leukemia ip, median survival T/C
Experiment: NCI In Vivo Anticancer Drug Screen. Data for tumor model P388 Leukemia (intraperitoneal) in B6D2F1 (BDF1) mice
Settings: endpoint: median survival time, higher = longer survival
In short: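 Transplantable tumour in mice; compound vs vehicle dosing; survival scored; ratio of treated to control reported.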

[1] = dose: 1.6 micrograms/kg/injection, schedule: Q01DX009 (ip), vehicle: saline + alcohol
[2] = dose: 6.2 micrograms/kg/injection, schedule: Q01DX009 (ip), vehicle: saline + alcohol
[3] = dose: 12.5 micrograms/kg/injection, schedule: Q01DX009 (ip), vehicle: saline + alcohol

In the case of `[O-]/C(CCl)=N\[n+]1c2c(nc3ccccc31)-c1cccc3cccc-2c13`, the T/C (dose: 12.5 mg/kg/injection, schedule: Q01DX001 (ip), vehicle: Klucel (hydroxypropylcellulose) (HPC)) is reported as 105 % of control and the T/C (dose: 25.0 mg/kg/injection, schedule: Q01DX001 (ip), vehicle: Klucel (hydroxypropylcellulose) (HPC)) is reported as 102 % of control.
With `O=[N+]([O-])c1ccc(/C=C/c2cccc(/C=C/c3ccc([N+](=O)[O-])cc3)[n+]2[O-])cc1` the T/C (dose: 50.0 mg/kg/injection, schedule: Q01DX005 (ip), vehicle: saline with Tween-80) was 96 % of control, the T/C (dose: 100.0 mg/kg/injection, schedule: Q01DX005 (ip), vehicle: saline with Tween-80) was 94 % of control and the T/C (dose: 200.0 mg/kg/injection, schedule: Q01DX005 (ip), vehicle: saline with Tween-80) was 93 % of control.
`C1CC[N-]CC1.C1CC[N-]CC1.C1CC[N-]CC1.C1CC[N-]CC1.CC(=N\[O-])/C(C)=N/O.CC(=N\[O-])/C(C)=N/O.[Cl-].[Cl-].[Cl][Rh][Cl].[Rh+3]` was tested, and the T/C (dose: 50.0 mg/kg/injection, schedule: Q01DX009 (ip), vehicle: saline) was 98 % of control, the T/C (dose: 100.0 mg/kg/injection, schedule: Q01DX009 (ip), vehicle: saline) was 86 % of control and the T/C (dose: 200.0 mg/kg/injection, schedule: Q01DX009 (ip), vehicle: saline) was 86 % of control. For the same compound, the T/C (dose: 400.0 mg/kg/injection, schedule: Q01DX009 (ip), vehicle: saline) was 95 % of control.
For `COc1cc2cc(c1Cl)N(C)C(=O)CC(OC(=O)C(C)N(C)C(=O)C(C)C)C1(C)OC1C(C)C1CC(O)(NC(=O)O1)C(OC)/C=C/C=C(C)C2` (stereo not given), the T/C (dose: 0.2 micrograms/kg/injection, schedule: Q01DX009 (ip), vehicle: saline + alcohol) was 165 % of control, the T/C (dose: 0.4 micrograms/kg/injection, schedule: Q01DX009 (ip), vehicle: saline + alcohol) was 155 % of control and the T/C (dose: 0.8 micrograms/kg/injection, schedule: Q01DX009 (ip), vehicle: saline + alcohol) was 190 % of control. The T/C [1] was 155 % of control, the T/C [2] was 155 % of control and the T/C [3] was 120 % of control.
With `NC(=S)N/N=C\c1ncnc2nc[nH]c12` the T/C (dose: 1.0 mg/kg/injection, schedule: Q01DX009 (ip), vehicle: Klucel (hydroxypropylcellulose) (HPC)) was 107 % of control, the T/C (dose: 2.0 mg/kg/injection, schedule: Q01DX009 (ip), vehicle: Klucel (hydroxypropylcellulose) (HPC)) was 111 % of control and the T/C (dose: 4.0 mg/kg/injection, schedule: Q01DX009 (ip), vehicle: Klucel (hydroxypropylcellulose) (HPC)) was 150 % of control. For the same compound, the T/C (dose: 8.0 mg/kg/injection, schedule: Q01DX009 (ip), vehicle: Klucel (hydroxypropylcellulose) (HPC)) was 160 % of control, the T/C (dose: 16.0 mg/kg/injection, schedule: Q01DX009 (ip), vehicle: Klucel (hydroxypropylcellulose) (HPC)) was 175 % of control and the T/C (dose: 32.0 mg/kg/injection, schedule: Q01DX009 (ip), vehicle: Klucel (hydroxypropylcellulose) (HPC)) was 185 % of control.
`O=C1C=C/C(=N/S(=O)(=O)c2ccccc2)c2ccccc21` was tested, and the T/C (dose: 0.37 mg/kg/injection, schedule: Q01DX009 (ip), vehicle: DMSO) was 100 % of control, the T/C (dose: 0.75 mg/kg/injection, schedule: Q01DX009 (ip), vehicle: DMSO) was 100 % of control and the T/C (dose: 1.5 mg/kg/injection, schedule: Q01DX009 (ip), vehicle: DMSO) was 100 % of control. The T/C (dose: 12.0 mg/kg/injection, schedule: Q01DX009 (ip), vehicle: DMSO) was 92 % of control, the T/C (dose: 25.0 mg/kg/injection, schedule: Q04DX003 (ip), vehicle: DMSO) was 91 % of control and the T/C (dose: 50.0 mg/kg/injection, schedule: Q04DX003 (ip), vehicle: DMSO) was 104 % of control. For the same compound, the T/C (dose: 100.0 mg/kg/injection, schedule: Q04DX003 (ip), vehicle: DMSO) was 100 % of control.
In the case of `O=C1C2C(c3cc4ccccc4n31)N2c1ccccc1` (stereo not given), the T/C (dose: 0.03 mg/kg/injection, schedule: Q01DX010 (ip), vehicle: water) is reported as 110 % of control, the T/C (dose: 0.06 mg/kg/injection, schedule: Q01DX010 (ip), vehicle: water) is reported as 94 % of control and the T/C (dose: 0.13 mg/kg/injection, schedule: Q01DX010 (ip), vehicle: water) is reported as 94 % of control. For the same compound, the T/C (dose: 0.25 mg/kg/injection, schedule: Q01DX010 (ip), vehicle: water) was 94 % of control, the T/C (dose: 0.5 mg/kg/injection, schedule: Q01DX010 (ip), vehicle: water) was 105 % of control and the T/C (dose: 1.0 mg/kg/injection, schedule: Q01DX010 (ip), vehicle: water) was 105 % of control. The T/C (dose: 2.0 mg/kg/injection, schedule: Q01DX010 (ip), vehicle: water) was 105 % of control.
For `CCOC12CC(OC(=O)N1)C(C)C1OC1(C)C(OC(=O)C(C)N(C)C(C)=O)CC(=O)N(C)c1cc(cc(OC)c1Cl)C/C(C)=C/C=CC2OC` (stereo not given), the T/C [1] was 99 % of control, the T/C (dose: 3.1 micrograms/kg/injection, schedule: Q01DX009 (ip), vehicle: saline + alcohol) was 99 % of control and the T/C [2] was 99 % of control. For the same compound, the T/C [3] was 101 % of control, the T/C (dose: 25.0 micrograms/kg/injection, schedule: Q01DX009 (ip), vehicle: saline + alcohol) was 116 % of control and the T/C (dose: 50.0 micrograms/kg/injection, schedule: Q01DX009 (ip), vehicle: saline + alcohol) was 98 % of control. The T/C (dose: 100.0 micrograms/kg/injection, schedule: Q01DX009 (ip), vehicle: saline + alcohol) was 105 % of control, the T/C (dose: 200.0 micrograms/kg/injection, schedule: Q01DX009 (ip), vehicle: saline + alcohol) was 98 % of control and the T/C (dose: 400.0 micrograms/kg/injection, schedule: Q01DX009 (ip), vehicle: saline + alcohol) was 100 % of control.
For `ClCc1ccc(CCl)cc1`, the T/C (dose: 7.03 mg/kg/injection, schedule: Q01DX009 (ip), vehicle: Klucel (hydroxypropylcellulose) (HPC)) was 110 % of control.
With `C=CCN(CC=C)C(=O)OCC` the T/C (dose: 100.0 mg/kg/injection, schedule: Q04DX003 (ip), vehicle: saline with Tween-80) was 100 % of control, the T/C (dose: 200.0 mg/kg/injection, schedule: Q04DX003 (ip), vehicle: saline with Tween-80) was 120 % of control and the T/C (dose: 400.0 mg/kg/injection, schedule: Q04DX003 (ip), vehicle: saline with Tween-80) was 104 % of control.
With `C/C=C1\CN2CCc3c([nH]c4ccccc34)C2CC1Cc1nccc2c1[nH]c1ccccc12` (stereo not given) the T/C (dose: 1.0 mg/kg/injection, schedule: Q04DX003 (ip), vehicle: saline) was 98 % of control, the T/C (dose: 2.0 mg/kg/injection, schedule: Q04DX003 (ip), vehicle: saline) was 102 % of control and the T/C (dose: 4.0 mg/kg/injection, schedule: Q04DX003 (ip), vehicle: saline) was 102 % of control. The T/C (dose: 6.0 mg/kg/injection, schedule: Q04DX003 (ip), vehicle: saline) was 107 % of control, the T/C (dose: 12.0 mg/kg/injection, schedule: Q04DX003 (ip), vehicle: saline) was 103 % of control and the T/C (dose: 24.0 mg/kg/injection, schedule: Q04DX003 (ip), vehicle: saline) was 100 % of control. For the same compound, the T/C (dose: 48.0 mg/kg/injection, schedule: Q04DX003 (ip), vehicle: saline) was 100 % of control.
In the case of `O=C(O)CCN1C(=O)c2ccccc2C1=O`, the T/C (dose: 100.0 mg/kg/injection, schedule: Q01DX009 (ip), vehicle: saline with Tween-80) is reported as 90 % of control and the T/C (dose: 200.0 mg/kg/injection, schedule: Q01DX009 (ip), vehicle: saline with Tween-80) is reported as 100 % of control.
With `O=C(NCCCCN1CC1)C(=O)NCCCCN1CC1` the T/C (dose: 6.25 mg/kg/injection, schedule: Q04DX003 (ip), vehicle: Klucel (hydroxypropylcellulose) (HPC)) was 188 % of control, the T/C (dose: 12.5 mg/kg/injection, schedule: Q04DX003 (ip), vehicle: Klucel (hydroxypropylcellulose) (HPC)) was 188 % of control and the T/C (dose: 25.0 mg/kg/injection, schedule: Q04DX003 (ip), vehicle: Klucel (hydroxypropylcellulose) (HPC)) was 221 % of control.
In the case of `C[C@]12CC[C@@H]3c4ccc(O)cc4CC[C@H]3[C@@H]1CC[C@@H]2O`, the T/C (dose: 100.0 mg/kg/injection, schedule: Q01DX009 (ip), vehicle: Klucel (hydroxypropylcellulose) (HPC)) is reported as 90 % of control, the T/C (dose: 100.0 mg/kg/injection, schedule: Q04DX003 (ip), vehicle: Klucel (hydroxypropylcellulose) (HPC)) is reported as 100 % of control and the T/C (dose: 200.0 mg/kg/injection, schedule: Q04DX003 (ip), vehicle: Klucel (hydroxypropylcellulose) (HPC)) is reported as 100 % of control. The T/C (dose: 400.0 mg/kg/injection, schedule: Q01DX009 (ip), vehicle: Klucel (hydroxypropylcellulose) (HPC)) was 95 % of control and the T/C (dose: 400.0 mg/kg/injection, schedule: Q04DX003 (ip), vehicle: Klucel (hydroxypropylcellulose) (HPC)) was 115 % of control.
